Results published in US6758840B2, “Drug delivery device” (Metris Therapeutics Limited, priority 2000, dated 2004).

Columns and labels:
[1] = Plasma mefenamic acid after intra-vaginal device with wax layer (Example 3); type: in vivo, Rhesus monkeys; conditions: intra-vaginal tampon device, wax fluid-impermeable layer, mefenamic acid dusted on; Rhesus monkey plasma
From the text: Further devices according to the present invention were made and used to deliver a pharmaceutical agent intra-vaginally in Rhesus monkeys.
(§1) Materials used in the manufacture of commercial tampons for human use were reconstituted to produce tampons with dimensions 7 mm×25 mm or 5 mm×25 mm. Depending on the weight of an individual Rhesus monkey, one of these sizes of tampon was able to be conveniently inserted into the vagina of the Rhesus monkey.
Wax material was used to create a fluid-impermeable layer of the tampons by warming the wax layer to make it adhere to the body of the tampon. Once the wax layer had been applied, mefenamic acid was “dusted” onto the device while the device was warmed to aid adhesion between the wax and the mefenamic acid. Non-adherent mefenamic acid was removed.
(§2) Rhesus monkeys were anaesthetised with ketamine hydrochloride and one of the above-mentioned tampon devices was inserted into the vagina of each monkey. A 19 gauge catheter was inserted into the saphenous vein of each monkey. This catheter was used to collect blood samples during the course of the study. The monkeys were returned to their cages when appropriate.
(§3) Blood samples were taken at intervals and plasma was prepared and frozen. After the completion of the study, all plasma samples were assayed for the concentration of mefenamic acid.

[2] = Plasma mefenamic acid after intra-vaginal device with adhesive tape layer (Example 2); type: in vivo, Rhesus monkeys; conditions: intra-vaginal tampon device, double-sided adhesive tape as fluid-impermeable layer, mefenamic acid powder dusted on; Rhesus monkey plasma
From the text: Devices according to the present invention were made and used to deliver a pharmaceutical agent intra-vaginally in Rhesus monkeys.
as §1
A strip of double-sided adhesive tape was secured to the surface of the tampons to function as the fluid-impermeable layer. Mefenamic acid powder was “dusted” onto the surface of the tape and non-adherent mefenamic acid was removed.
as §2, §3

[3] = Plasma mefenamic acid after intra-vaginal wax-layer device, eight monkeys (Example 4); type: in vivo; conditions: average 6.4 mg mefenamic acid per device, mean of eight Rhesus monkeys
Experimental: Eight devices were prepared as described in Example 3. The devices were assayed and the average amount of mefenamic found to be in each device was 6.4 mg. Each device was inserted into the vagina of one of eight Rhesus monkeys. The monkeys all weighed in the range 7.27 kg to 8.95 kg.
(§4) Blood samples were taken from the Rhesus monkeys and the samples were assayed as described in Example 3, at the time intervals shown in the graph of FIG. 18. The results of this study are shown in the graph of FIG. 18, which indicates the concentration in ng/ml of mefenamic acid found in the plasma of the Rhesus monkeys with time following insertion of the devices of this example. Each point of the graph of FIG. 18 represents the mean value of the concentration of the eight monkeys.

[4] = Comparison of uptake of mefenamic acid from device and from slurry (Example 5); type: in vivo; conditions: Rhesus monkeys
From the text: A comparison was made between the uptake of mefenamic acid in Rhesus monkeys where the mefenamic acid was introduced intra-vaginally using the devices of Example 3 and the uptake of mefenamic acid in Rhesus monkeys where a slurry comprising mefenamic acid was introduced intra-vaginally.
The slurry of mefenamic acid applied to a Rhesus monkey comprised a total amount of mefenamic acid that was greater than ten times that applied to a Rhesus monkey using the device of Example 3.
as §4, with “19.” for “18.”, “19,” for “18,”, “devices (circles) and slurry (triangles)” for “devices”, “example.” for “example. Each point of the graph of FIG. 18 represents the mean value of the concentration of the eight monkeys.”

Cc1cccc(Nc2ccccc2C(=O)O)c1C [mefenamic acid]
transport across the vaginal mucosa / systemic circulation (plasma concentration, FIG. 17) [1]: mefenamic acid was transported across the vaginal mucosa and systemic circulation of mefenamic acid was achieved
transport across the vaginal mucosa / systemic circulation (plasma concentration, FIG. 16) [2]: mefenamic acid was transported across the vaginal mucosa and systemic circulation of mefenamic acid was achieved
transport across the vaginal mucosa / systemic circulation (plasma concentration, FIG. 18) [3]: mefenamic acid was transported across the vaginal mucosa and systemic circulation of mefenamic acid was achieved
uptake of mefenamic acid (plasma concentration, FIG. 19) ([4]; introduced intra-vaginally as slurry, total amount greater than ten times that of the device): only limited uptake of mefenamic acid by the monkeys was achieved
uptake of mefenamic acid (plasma concentration, FIG. 19) ([4]; introduced intra-vaginally using the device of Example 3 (wax layer)): transportation of mefenamic acid across the vaginal mucosa and systemic circulation of mefenamic acid in the Rhesus monkeys was achieved
